PubChem BioAssay AID2060354 (Molecular Pharmacology Branch, DTP, NCI, 2025)
Where “and” joins values, the source holds several entries; their conditions need not be identical. Equal values may be shown once.

Test system: 519858-162-T-J1-PDC spheroid growth inhibition
Assay: Anticancer human tumor 519858-162-T-J1-PDC patient-derived colon adenocarcinoma cell line growth inhibition [TAK]
Conditions: spheroids with HUVEC and MSC; for viability, T/C: stronger effect = lower value
Text: Combinatorial screen of targeted agents with TAK-243 and ipatasertib in multi-cell type tumor spheroids
A high-throughput screen of multi-cell type tumor spheroids was designed to identify active combinations of targeted small molecules and TAK-243 or ipatasertib. Complex spheroids include a stromal component modeled by human endothelial cells (HUVEC) and fibroblasts modeled by human mesenchymal stem cells (MSCs). The concentration ranges selected for each drug and investigational agent were based upon clinically achievable concentrations if the clinical Cmax of the agent was known.
Compounds. The drugs and investigational agents: TAK-243 (785004), ipatasertib (767898), everolimus (733504), selumetinib (741078), bortezomib (756655), trametinib (758246), ixazomib (758254), vemurafenib (761431), dabrafenib (764134), sapanisertib (764658), alpelisib (765974), and copanlisib (816437), were obtained from the National Cancer Institute (NCI) Developmental Therapeutics Program Chemical Repository. The FDA-approved anticancer drug set is available from the NCI Developmental Therapeutics Program. […] The stock solutions were prepared in dimethyl sulfoxide (DMSO, Sigma-Aldrich, St. Louis, MO, cat. D2650) at 800-fold the tested concentration and stored at -70 degrees C prior to their use. All drugs and investigational agents were tested over a range starting from a high concentration at or near the clinical Cmax and decreasing in half-log increments. If the clinical Cmax for an agent had not been determined, the highest concentration tested was 10 microM.
NCI60 Cell Culture. NCI60 cell lines were obtained from the NCI Developmental Therapeutics Program Tumor Repository. For each lot of cells, the Repository performed Applied Biosystems AmpFLSTR Identifiler testing with PCR amplification to confirm consistency with the published Identifier STR profile for each cell line. Cells were kept in continuous culture for no more than 20 passages. The optimal seeding densities for each of the cell lines at each time point assessed were determined prior to performing the concentration response studies. Briefly, the NCI60 human tumor lines were grown as monolayers in RPMI 1640 medium supplemented with 10% FBS and 2 mmol/L L-glutamine.
An additional 2 lines were from the NCI60 cell line panel including melanomas, MALME-3M and SK-MEL-2. Pooled donor human umbilical vein endothelial cells (HUVEC, Lonza, cat. CC-2519) and human mesenchymal stem cells (hMSC, Lonza, cat. PT-2501) were purchased from Lonza (Walkersville, MD).
PDMR cell lines were grown in complete medium (DC medium): Dulbecco's modified Eagle's medium (DMEM)/F12 supplemented with 5% fetal bovine serum (FBS), 2 mM L-glutamine, 100 U/mL penicillin and 100 µg/ml streptomycin, 0.4 µg/ml hydrocortisone, 10 ng/ml epidermal growth factor (EGF) recombinant human protein, 24 µg/mL adenine, and 0.1 mg/mL primocin. During culture from frozen stock vials, PDMR cells were cultured in the same medium containing 10 µM Y-27632 (see Table 3). The PDCs were cultured in complete DMEM/F12 media without 10 microM Y-27632 dihydrochloride for at least two passages prior to the screen. The pooled donor HUVEC and hMSC were cultured in endothelial cell growth medium 2 (PromoCell, Heidelberg, Germany, cat. C-22011) and mesenchymal stem cell growth medium 2 (PromoCell, cat. C-28009), respectively. For all experiments, HUVEC and hMSC were used at passages </=5.
For the pre-screen, cell seeding densities were determined from a titration spanning the range from 5,000 to 313 cells per well. The mct-spheroids including 60% malignant cells, 25% HUVEC and 15% MSC dispensed as a mixture into U-bottom Ultra-Low Attachment 384-well plates (Corning, NY)
High-throughput Drug Combination Screening.
Prior to their inoculation into 384-well plates, malignant cells, HUVEC, and hMSC were removed from T flasks using TrypLE express (Thermo Fisher Scientific, cat. 12605036) and harvested by centrifugation for 5 min at 233 x g. […]

[1] = curve of first compound, second compound 0.3 µM
[2] = curve of first compound, second compound 0.949 µM
[3] = curve of first compound, second compound 3 µM
[4] = curve of first compound, second compound 9.49 µM
[5] = curve of first compound, second compound 30 µM
[6] = second compound 0.3 µM, first compound 0.0316 µM
[7] = second compound 0.3 µM, first compound 0.1 µM
[8] = second compound 0.949 µM, first compound 0.0316 µM
[9] = second compound 0.949 µM, first compound 0.1 µM
[10] = second compound 3 µM, first compound 0.0316 µM
[11] = second compound 3 µM, first compound 0.1 µM
[12] = second compound 9.49 µM, first compound 0.0316 µM
[13] = second compound 9.49 µM, first compound 0.1 µM
[14] = second compound 30 µM, first compound 0.0316 µM
[15] = second compound 30 µM, first compound 0.1 µM
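Further: spheroids exposed to drugs for 7 days.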

**Q.** With CC(C)n1nc(-c2ccc3oc(N)nc3c2)c2c(N)ncnc21 + CC(C)NCC(C(=O)N1CCN(c2ncnc3c2C(C)CC3O)CC1)c1ccc(Cl)cc1 as the molecule, how does the IC50 [1] read?
**A.** > 0.1 µM

**Q.** What about the IC50 [2] of the same molecule?
**A.** > 0.1 µM

**Q.** What about the IC50 [3] of the same molecule?
**A.** > 0.1 µM

**Q.** And the IC50 [4]?
**A.** > 0.1 µM

**Q.** What about the IC50 [5] of the same molecule?
**A.** > 0.1 µM

**Q.** And the viability, T/C (second compound 0.3 µM, first compound 0.000316 µM)?
**A.** 110%

**Q.** And the viability, T/C (second compound 0.3 µM, first compound 0.001 µM)?
**A.** 78.7%

**Q.** And the viability, T/C (second compound 0.3 µM, first compound 0.00316 µM)?
**A.** 89.7%

**Q.** What about the viability, T/C (second compound 0.3 µM, first compound 0.01 µM) of the same molecule?
**A.** 89.7%

**Q.** And the viability, T/C [6]?
**A.** 93.8%

**Q.** What about the viability, T/C [7] of the same molecule?
**A.** 68.1%

**Q.** What about the viability, T/C (second compound 0.949 µM, first compound 0.000316 µM) of the same molecule?
**A.** 85.7%

**Q.** And the viability, T/C (second compound 0.949 µM, first compound 0.001 µM)?
**A.** 88.2%

**Q.** And the viability, T/C (second compound 0.949 µM, first compound 0.00316 µM)?
**A.** 107%

**Q.** What about the viability, T/C (second compound 0.949 µM, first compound 0.01 µM) of the same molecule?
**A.** 83.8%

**Q.** And the viability, T/C [8]?
**A.** 90%

**Q.** What about the viability, T/C [9] of the same molecule?
**A.** 71.1%

**Q.** What about the viability, T/C (second compound 3 µM, first compound 0.000316 µM) of the same molecule?
**A.** 80.5%

**Q.** And the viability, T/C (second compound 3 µM, first compound 0.001 µM)?
**A.** 102%

**Q.** What about the viability, T/C (second compound 3 µM, first compound 0.00316 µM) of the same molecule?
**A.** 89.3%

**Q.** And the viability, T/C (second compound 3 µM, first compound 0.01 µM)?
**A.** 83.9%

**Q.** And the viability, T/C [10]?
**A.** 71.4%

**Q.** And the viability, T/C [11]?
**A.** 72.2%

**Q.** What about the viability, T/C (second compound 9.49 µM, first compound 0.000316 µM) of the same molecule?
**A.** 81.9%

**Q.** And the viability, T/C (second compound 9.49 µM, first compound 0.001 µM)?
**A.** 90.1%

**Q.** What about the viability, T/C (second compound 9.49 µM, first compound 0.00316 µM) of the same molecule?
**A.** 84.1%

**Q.** What about the viability, T/C (second compound 9.49 µM, first compound 0.01 µM) of the same molecule?
**A.** 93.7%

**Q.** What about the viability, T/C [12] of the same molecule?
**A.** 74.1%

**Q.** And the viability, T/C [13]?
**A.** 73.9%

**Q.** What about the viability, T/C (second compound 30 µM, first compound 0.000316 µM) of the same molecule?
**A.** 107%

**Q.** What about the viability, T/C (second compound 30 µM, first compound 0.001 µM) of the same molecule?
**A.** 80.2%

**Q.** And the viability, T/C (second compound 30 µM, first compound 0.00316 µM)?
**A.** 105%

**Q.** What about the viability, T/C (second compound 30 µM, first compound 0.01 µM) of the same molecule?
**A.** 79%

**Q.** And the viability, T/C [14]?
**A.** 67.1%

**Q.** What about the viability, T/C [15] of the same molecule?
**A.** 72.2%

**Q.** How did the viability, T/C (compound 94.9 pM) turn out when CC(=O)Nc1cccc(-n2c(=O)n(C3CC3)c(=O)c3c(Nc4ccc(I)cc4F)n(C)c(=O)c(C)c32)c1 was run?
**A.** 89.9% and 91.8%

**Q.** And the viability, T/C (compound 0.0003 µM)?
**A.** 93.7% and 106%

**Q.** And the viability, T/C (compound 0.000949 µM)?
**A.** 72.7% and 67.4%

**Q.** And the viability, T/C (compound 0.003 µM)?
**A.** 71.1% and 79.3%

**Q.** And the viability, T/C (compound 0.00949 µM)?
**A.** 34.1% and 44.1%

**Q.** What about the viability, T/C (compound 0.03 µM) of the same molecule?
**A.** 21.4% and 26.3%

**Q.** What about the IC50 (curve of compound) of the same molecule?
**A.** 0.00561 µM and 0.00851 µM

**Q.** How did the IC50 [1] turn out when Cc1nc(NC(=O)N2CCCC2C(N)=O)sc1-c1ccnc(C(C)(C)C(F)(F)F)c1 (centres undefined) + CC(C)NCC(C(=O)N1CCN(c2ncnc3c2C(C)CC3O)CC1)c1ccc(Cl)cc1 was run?
**A.** > 10 µM

**Q.** And the IC50 [2]?
**A.** > 10 µM

**Q.** And the IC50 [3]?
**A.** > 10 µM

**Q.** What about the IC50 [4] of the same molecule?
**A.** > 10 µM

**Q.** And the IC50 [5]?
**A.** > 10 µM

**Q.** What about the viability, T/C [6] of the same molecule?
**A.** 110%

**Q.** And the viability, T/C [7]?
**A.** 88.2%

**Q.** And the viability, T/C (second compound 0.3 µM, first compound 0.316 µM)?
**A.** 81%

**Q.** And the viability, T/C (second compound 0.3 µM, first compound 1 µM)?
**A.** 81.7%

**Q.** And the viability, T/C (second compound 0.3 µM, first compound 3.16 µM)?
**A.** 68.5%

**Q.** And the viability, T/C (second compound 0.3 µM, first compound 10 µM)?
**A.** 52.8%

**Q.** And the viability, T/C [8]?
**A.** 85.3%

**Q.** What about the viability, T/C [9] of the same molecule?
**A.** 94.8%

**Q.** And the viability, T/C (second compound 0.949 µM, first compound 0.316 µM)?
**A.** 104%

**Q.** And the viability, T/C (second compound 0.949 µM, first compound 1 µM)?
**A.** 79.9%

**Q.** What about the viability, T/C (second compound 0.949 µM, first compound 3.16 µM) of the same molecule?
**A.** 86.9%

**Q.** What about the viability, T/C (second compound 0.949 µM, first compound 10 µM) of the same molecule?
**A.** 66.2%

**Q.** And the viability, T/C [10]?
**A.** 80%

**Q.** What about the viability, T/C [11] of the same molecule?
**A.** 77.5%

**Q.** And the viability, T/C (second compound 3 µM, first compound 0.316 µM)?
**A.** 76.9%

**Q.** And the viability, T/C (second compound 3 µM, first compound 1 µM)?
**A.** 75.1%

**Q.** What about the viability, T/C (second compound 3 µM, first compound 3.16 µM) of the same molecule?
**A.** 80.5%

**Q.** And the viability, T/C (second compound 3 µM, first compound 10 µM)?
**A.** 65.7%

**Q.** What about the viability, T/C [12] of the same molecule?
**A.** 85.6%

**Q.** And the viability, T/C [13]?
**A.** 74.2%

**Q.** And the viability, T/C (second compound 9.49 µM, first compound 0.316 µM)?
**A.** 81.4%

**Q.** And the viability, T/C (second compound 9.49 µM, first compound 1 µM)?
**A.** 74.4%

**Q.** What about the viability, T/C (second compound 9.49 µM, first compound 3.16 µM) of the same molecule?
**A.** 71.2%

**Q.** What about the viability, T/C (second compound 9.49 µM, first compound 10 µM) of the same molecule?
**A.** 62.7%

**Q.** And the viability, T/C [14]?
**A.** 94.6%

**Q.** What about the viability, T/C [15] of the same molecule?
**A.** 82%

**Q.** And the viability, T/C (second compound 30 µM, first compound 0.316 µM)?
**A.** 91.5%

**Q.** And the viability, T/C (second compound 30 µM, first compound 1 µM)?
**A.** 80.2%

**Q.** And the viability, T/C (second compound 30 µM, first compound 3.16 µM)?
**A.** 72.4%

**Q.** What about the viability, T/C (second compound 30 µM, first compound 10 µM) of the same molecule?
**A.** 72.2%

**Q.** Which viability, T/C (compound 0.0316 µM) does the source give for Cc1nc(NC(=O)N2CCCC2C(N)=O)sc1-c1ccnc(C(C)(C)C(F)(F)F)c1 (centres undefined) here?
**A.** 104% and 89.1%

**Q.** And the viability, T/C (compound 0.1 µM)?
**A.** 79.9% and 74%

**Q.** What about the viability, T/C (compound 0.316 µM) of the same molecule?
**A.** 91% and 80.8%

**Q.** And the viability, T/C (compound 1 µM)?
**A.** 81.2% and 80.4%

**Q.** And the viability, T/C (compound 3.16 µM)?
**A.** 79.6% and 74%

**Q.** What about the viability, T/C (compound 10 µM) of the same molecule?
**A.** 61.9% and 50%

**Q.** What about the IC50 (curve of compound) of the same molecule?
**A.** > 10 µM and 10 µM
